# In patent publication US20260184691A1, “INHIBITORS AND DEGRADERS OF PIP4K PROTEIN” (Larkspur Biosciences, Inc., priority 2022, published 2026):
# Target: T1, Human PIP4K2C (Homo sapiens, UniProt Q8TBX8)
# T1 construct: purchased Eurofins DiscoverX 87-0007-1094
# T1 sequence (Q8TBX8 1-421): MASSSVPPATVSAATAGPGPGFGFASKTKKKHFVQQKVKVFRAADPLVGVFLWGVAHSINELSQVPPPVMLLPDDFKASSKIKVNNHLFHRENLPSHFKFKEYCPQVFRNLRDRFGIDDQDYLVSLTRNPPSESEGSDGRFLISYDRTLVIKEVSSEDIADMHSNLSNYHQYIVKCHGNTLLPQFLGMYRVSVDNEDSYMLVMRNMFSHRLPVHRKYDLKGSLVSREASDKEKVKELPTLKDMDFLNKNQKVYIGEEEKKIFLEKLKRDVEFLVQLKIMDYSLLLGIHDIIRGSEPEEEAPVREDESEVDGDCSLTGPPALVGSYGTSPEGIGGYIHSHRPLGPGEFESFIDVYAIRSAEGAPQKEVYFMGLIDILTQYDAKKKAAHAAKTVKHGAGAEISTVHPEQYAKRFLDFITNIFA
# Assay: Enzyme binding assay (KINOMEscan), active site-directed competition binding
# Conditions: 11-point dose response, duplicate, top concentration 5 micromolar; read-out: Pip4k2c Kd: IC50
# Method: PIP4K2C binding constants disclosed herein were determined using the proprietary Human PIP4K2C binding assay (Catalog number 87-0007-1094, Eurofins DiscoverX, San Diego, CA). This assay measures active site-directed competition binding to an immobilized ligand (see https://doi.org/10.1038/nbt1068, herein incorporated by reference in its entirety). Experiments were conducted using an 11-point dose response curve, in duplicate, with a top starting concentration of 5 micromolar; the Levenberg-Marquardt algorithm was used to fit a Hill equation to dose-response data to calculate IC50 values (see Table 5).
row,Compound,IC50
1,"O=C1CCCN1c1cncc(Nc2ncc(Cl)c(-c3ccc(F)cc3)n2)c1 [Compound 118, 1-(5-((5-chloro-4-(4-fluorophenyl)pyrimidin-2-yl)amino)pyridin-3-yl)pyrrolidin-2-one]",< 500 nM
2,"O=C1CCCN1c1cncc(Nc2ncc(Cl)c(-c3ccn(C4CCCC4)n3)n2)c1 [Compound 144, 1-(5-((5-chloro-4-(1-cyclopentyl-1H-pyrazol-3-yl)pyrimidin-2-yl)amino)pyridin-3-yl)pyrrolidin-2-one]",< 500 nM
3,"O=C1CCCN1c1cncc(Nc2ncc(Cl)c(-c3cccc(-c4ccccn4)c3)n2)c1 [Compound 9, 1-(5-((5-chloro-4-(3-(pyridin-2-yl)phenyl)pyrimidin-2-yl)amino)pyridin-3-yl)pyrrolidin-2-one]",< 500 nM
4,"Cc1ccccc1-c1cccc(-c2nc(Nc3cncc(N4CCCC4=O)c3)ncc2Cl)c1 [Compound 15, 1-(5-((5-chloro-4-(2′-methyl-[1,1′-biphenyl]-3-yl)pyrimidin-2-yl)amino)pyridin-3-yl)pyrrolidin-2-one]",< 500 nM
5,"O=C(C1COC1)N1CCCC(c2nc(Nc3cncc(N4CCCC4=O)c3)ncc2Cl)C1 (centres unmarked) [Compound 160, 1-(5-((5-chloro-4-(1-(oxetane-3-carbonyl)piperidin-3-yl)pyrimidin-2-yl)amino)pyridin-3-yl)pyrrolidin-2-one]",< 500 nM
6,"O=C(c1ccc(=O)[nH]c1)N1CCCC(c2nc(Nc3cncc(N4CCCC4=O)c3)ncc2Cl)C1 (centres unmarked) [Compound 163, 5-[3-[5-chloro-2-[[5-(2-oxopyrrolidin-1-yl)-3-pyridyl]amino]pyrimidin-4-yl]piperidine-1-carbonyl]-1H-pyridin-2-one]",< 500 nM
7,"O=C1CCCN1c1cncc(Nc2ncc(Cl)c(N3CCc4ccccc43)n2)c1 [Compound 129, 1-(5-((5-chloro-4-(indolin-1-yl)pyrimidin-2-yl)amino)pyridin-3-yl)pyrrolidin-2-one]",< 500 nM
8,"O=C1CCCN1c1cncc(Nc2ncc(Cl)c(C3CCCN(C4CCCC4)C3)n2)c1 (centres unmarked) [Compound 135, 1-(5-((5-chloro-4-(1-cyclopentylpiperidin-3-yl)pyrimidin-2-yl)amino)pyridin-3-yl)pyrrolidin-2-one]",< 500 nM
9,"O=C(c1ccc[nH]c1=O)N1CCCC(c2nc(Nc3cncc(N4CCCC4=O)c3)ncc2Cl)C1 (centres unmarked) [Compound 165, 3-(3-(5-chloro-2-((5-(2-oxopyrrolidin-1-yl)pyridin-3-yl)amino)pyrimidin-4-yl)piperidine-1-carbonyl)pyridin-2(1H)-one]",< 500 nM
10,"Cn1cc(-c2nc(Nc3cncc(N4CCCC4=O)c3)ncc2Cl)cn1 [Compound 90, 1-(5-((5-chloro-4-(1-methyl-1H-pyrazol-4-yl)pyrimidin-2-yl)amino)pyridin-3-yl)pyrrolidin-2-one]",< 500 nM
11,"COc1ccc(-c2ccccc2)cc1-c1nc(Nc2cncc(N3CCCC3=O)c2)ncc1Cl [Compound 21, 1-(5-((5-chloro-4-(4-methoxy-[1,1′-biphenyl]-3-yl)pyrimidin-2-yl)amino)pyridin-3-yl)pyrrolidin-2-one]",< 500 nM
12,"COc1ccc(-c2cccc(-c3nc(Nc4cncc(N5CCCC5=O)c4)ncc3Cl)c2)cc1 [Compound 5, 1-(5-((5-chloro-4-(4′-methoxy-[1,1′-biphenyl]-3-yl)pyrimidin-2-yl)amino)pyridin-3-yl)pyrrolidin-2-one]",< 500 nM
13,"O=C1CCCN1c1cncc(Nc2ncc(Cl)c(N3CCC[C@@H](c4ccccn4)C3)n2)c1 (single isomer, unassigned) [Compound 124]",< 500 nM
14,"CN1CCN(c2cncc(Nc3ncc(Cl)c(-c4cccc(-c5ccccc5)c4)n3)c2)C1=O [Compound 32, 1-(5-((4-([1,1′-biphenyl]-3-yl)-5-chloropyrimidin-2-yl)amino)pyridin-3-yl)-3-methylimidazolidin-2-one]",< 500 nM
15,"O=C1CCCN1c1cncc(Nc2ncc(Cl)c(N3CCC[C@@H](c4ccccc4)C3)n2)c1 [Compound 43, (S)-1-(5-((5-chloro-4-(3-phenylpiperidin-1-yl)pyrimidin-2-yl)amino)pyridin-3-yl)pyrrolidin-2-one]",< 500 nM
16,"O=C1CCCN1c1cncc(Nc2ncc(Cl)c(N3C(=O)CC[C@H]3c3ccccc3)n2)c1 [29, Enant A]",< 500 nM
17,"CC(=O)N1CCC(c2nc(Nc3cncc(N4CCCC4=O)c3)ncc2Cl)CC1 [Compound 152, 1-(5-((4-(1-acetylpiperidin-4-yl)-5-chloropyrimidin-2-yl)amino)pyridin-3-yl)pyrrolidin-2-one]",< 500 nM
18,"O=C1CCCN1c1cncc(Nc2ncc(Cl)c(N3C(=O)CC[C@@H]3c3ccccc3)n2)c1 [29, Enant B]",500 to 1000 nM

row,Compound,IC50
1,"O=C1CCCN1c1cncc(Nc2ncc(Cl)c(-c3ccn(-c4ccccc4)n3)n2)c1 [Compound 143, 1-(5-((5-chloro-4-(1-phenyl-1H-pyrazol-3-yl)pyrimidin-2-yl)amino)pyridin-3-yl)pyrrolidine-2-one]",< 500 nM
2,"O=C1CCCN1c1cncc(Nc2ncc(Cl)c(N3CCCCC3)n2)c1 [Compound 96, 1-(5-((5-chloro-4-(piperidin-1-yl)pyrimidin-2-yl)amino)pyridin-3-yl)pyrrolidin-2-one]",< 500 nM
3,"O=C1CCCN1c1cncc(Nc2cc(-c3ccc(F)cc3F)c(Cl)cn2)c1 [Compound 104, 1-(5-((5-chloro-4-(2,4-difluorophenyl)pyridin-2-yl)amino)pyridin-3-yl)pyrrolidin-2-one]",500 to 1000 nM
4,"O=C1CCCN1c1cncc(Nc2ncc(Cl)c(N3CCC(N4CCCC4)C3)n2)c1 (centres unmarked) [Compound 37, 1-(5-((4-([1,3′-bipyrrolidin]-1′-yl)-5-chloropyrimidin-2-yl)amino)pyridin-3-yl)pyrrolidin-2-one]",< 500 nM
5,"O=C1CCCN1c1cncc(Nc2ncc(Cl)c(-c3cnn(-c4ccccc4)c3)n2)c1 [Compound 140, 1-(5-((5-chloro-4-(1-phenyl-1H-pyrazol-4-yl)pyrimidin-2-yl)amino)pyridin-3-yl)pyrrolidin-2-one]",< 500 nM
6,"O=C1CCCN1c1cncc(Nc2ncc(Cl)c(N3Cc4ccccc4C3)n2)c1 [Compound 130, 1-(5-((5-chloro-4-(isoindolin-2-yl)pyrimidin-2-yl)amino)pyridin-3-yl)pyrrolidin-2-one]",< 500 nM
7,"O=C1CCCN1c1cncc(Nc2ncc(Cl)c(-c3cccc(N4CCCCC4)c3)n2)c1 [Compound 38, 1-(5-((5-chloro-4-(3-(piperidin-1-yl)phenyl)pyrimidin-2-yl)amino)pyridin-3-yl)pyrrolidin-2-one]",< 500 nM
8,"CC1CCCN(c2nc(Nc3cncc(N4CCCC4=O)c3)ncc2Cl)C1 (centres unmarked) [Compound 100, 1-(5-((5-chloro-4-(3-methylpiperidin-1-yl)pyrimidin-2-yl)amino)pyridin-3-yl)pyrrolidin-2-one]",< 500 nM
9,"O=C1CCCN1c1cncc(Nc2ncc(F)c(C3CCCN(C4CC4)C3)n2)c1 (centres unmarked) [Compound 154, 1-(5-((4-(1-cyclopropylpiperidin-3-yl)-5-fluoropyrimidin-2-yl)amino)pyridin-3-yl)pyrrolidine-2-one]",< 500 nM
10,"CN1CC2(CC(=O)N(c3cncc(Nc4ncc(Cl)c(-c5cccc(-c6ccccc6)c5)n4)c3)C2)C1 [Compound 35, 6-(5-((4-([1,1′-biphenyl]-3-yl)-5-chloropyrimidin-2-yl)amino)pyridin-3-yl)-2-methyl-2,6-diazaspiro[3.4]octan-7-one]",< 500 nM
11,"O=C1CCCN1c1cncc(Nc2ncc(Cl)c(-c3ccc(C4CC4)cc3)n2)c1 [Compound 13, 1-(5-((5-chloro-4-(4-cyclopropylphenyl)pyrimidin-2-yl)amino)pyridin-3-yl)pyrrolidin-2-one]",< 500 nM
12,"O=C1CCCN1c1cncc(Nc2ncc(Cl)c(-c3cccc(-c4ccc(Cl)cc4)c3)n2)c1 [Compound 4, 1-(5-((5-chloro-4-(4′-chloro-[1,1′-biphenyl]-3-yl)pyrimidin-2-yl)amino)pyridin-3-yl)pyrrolidin-2-one]",< 500 nM
13,"Cc1ccccc1-c1nc(Nc2cncc(N3CCCC3=O)c2)ncc1Cl [Compound 116, 1-(5-((5-chloro-4-(o-tolyl)pyrimidin-2-yl)amino)pyridin-3-yl)pyrrolidin-2-one]",< 500 nM
14,"O=C1CCCN1c1cncc(Nc2ncc(Cl)c(-c3cccc(C4CCCC4)c3)n2)c1 [Compound 40, 1-(5-((5-chloro-4-(3-cyclopentylphenyl)pyrimidin-2-yl)amino)pyridin-3-yl)pyrrolidin-2-one]",< 500 nM
15,"O=C(c1ccc(F)cc1)N1CCCC(c2nc(Nc3cncc(N4CCCC4=O)c3)ncc2Cl)C1 (centres unmarked) [Compound 162, 1-(5-((5-chloro-4-(1-(4-fluorobenzoyl)piperidin-3-yl)pyrimidin-2-yl)amino)pyridin-3-yl)pyrrolidin-2-one]",< 500 nM
16,"O=C1CCCN1c1cncc(Nc2ncc(Cl)c(-c3cc(-c4ccccc4)[nH]n3)n2)c1 [Compound 49, 1-(5-((5-chloro-4-(5-phenyl-1H-pyrazol-3-yl)pyrimidin-2-yl)amino)pyridin-3-yl)pyrrolidin-2-one]",< 500 nM
17,"CC(=O)N1CCCC(c2cccc(-c3nc(Nc4cncc(N5CCCC5=O)c4)ncc3Cl)c2)C1 (centres unmarked) [Compound 34, 1-(5-((4-(3-(1-acetylpiperidin-3-yl)phenyl)-5-chloropyrimidin-2-yl)amino)pyridin-3-yl)pyrrolidin-2-one]",< 500 nM
